Values after ≈ are worked out from the molar mass of the structure shown. Values joined by “and” are separate entries in the source; they are usually repeats but may differ in a detail not shown here. Equal entries are not always repeated. Where two headings read alike, the source gives them in different places.
Experiments:
E. Coli = experiment: MIC, E. Coli; type: cell-based; details: for MIC: Escherichia coli
Method: (§1) The MIC assays are carried out in 150 μL volume in duplicate in 96-well clear flat-bottom plates. The bacterial suspension from an overnight culture growth in appropriate medium is added to a solution of test compound in 4% DMSO in water. Final bacterial inoculum is approximately 10^5-10^6 CFU/well. […] Both ampicillin and tetracycline are used as antibiotic-positive controls in each screening assay for S. pyogenes, E. coli imp-, E. coli, S. aureus, E. faecalis, K. pneumoniae and P. vulgaris. Ciprofloxacin is used as an antibiotic positive control in each screening assay for P. aeruginosa.

S. Aureus = experiment: MIC, S. Aureus; type: cell-based; details: for MIC: Staphylococcus aureus
Method: as §1

[1] = biological target: 18S ribosomal subunit RNA target; experiment: Mass spectrometry based binding assay (FTICR), 18S; details: Example 108
Method: (§2) In a typical experiment, 10 μL of an aqueous solution containing 100 mM ammonium acetate buffer, 2.5 or 5 μM of each RNA, and 33% isopropyl alcohol (to aid ion desolvation) was prepared with different concentrations of each ligand or ligand mixture Samples were introduced into the electrospray ionization source (negative ionization mode) at 1 μL/min and ions were stored for 1 sec in an RF-only hexapole following desolvation. The abundances were integrated from the respective ions for free RNA and the ligand-RNA complex. The primary (1:1 RNA:ligand) and secondary (1:2 complex, if observed). […] The peak ratios were measured at each concentration, then a plot of complex/free RNA versus concentration of ligand added was fitted to a second (or higher) order binding polynomial to determine the KD.

[2] = biological target: 16S ribosomal subunit RNA target; experiment: Mass spectrometry based binding assay (FTICR), 16S
Method: as §2, with “[…],” for “2.5 or 5 μM of each RNA,”

[3] = test system: Staphylococcus aureus (Smith Strain ATCC 13709); experiment: Staphylococcus aureus mouse protection assay; type: in vivo, mice; details: Staph Conc. 10^6, 10% Mucin, the 13th table
Method: Two of the novel aminoglycoside compounds of the invention were examined for their anitbacterial activity against staphylococcus aureus. Mice were fed with autoclaved commercial food pellets and sterile water ad libitum. Animals were inoculated intraperitoneally with 0.5 mL/mouse of the indicated concentration of S. aureus (ATCC 13709) containing 10% mucin. There were 10 mice in each treatment group and compounds were administered subcutaneously one and 3 hour after infection. Compounds 15a (R4═R5═CH3) and 15j (R4═H, R5═(CH2)2C6H5)) were used at 75 mg/kg, 37.5 mg/kg, 18.8 mg/kg, 9.4 mg/kg, 4.7 mg/kg, 2.3 mg/kg, 1.17 mg/kg and 0.5 mg/kg. Amakacin, paromomycin and neomycin were used as the positive controls at concentrations of 2 mg/kg, 1 mg/kg and 0.5 mg/kg.
Test compound was administered as an aqueous buffer solution (phosphate buffered saline (PBS), pH=7.4).

[4] = test system: E. coli S30 bacterial extract (pBestLuc firefly luciferase reporter); experiment: Coupled bacterial transcription/translation assay; type: biochemical; details: read-out: Trans/Trans IC50
Method: The DNA template, pBestLuc™ (Promega), is a plasmid containing a reporter gene for firefly luciferase fused to a strong tac promoter and ribosome binding site. Messenger RNA from 1 μg pBestLuc is transcribed and translated in E. coli S30 bacterial extract in the presence or absence of test compound. Compounds are tested in a black 96 well microtiter plate with an assay volume of 35 μL. […] The transcription/translation reaction is incubated for 35 minutes at 37° C. followed by detection of functional luciferase with the addition of 30 μL LucLite™ (Packard). Light output is quantitated on a Packard TopCount.

[5] = FTICR mass spectrometry, run at 100 nM RNA, Example 105
[6] = marked with an asterisk: run at 500 nM RNA, Example 105

NCC1OC(OC2C(CO)OC(OC3C(O)C(N)CC(N)C3OC3OC(CO)C(O)C(O)C3N)C2OCCNCCc2cc(C(F)(F)F)cc(C(F)(F)F)c2)C(N)C(O)C1O (stereo not shown) [Compound 9af]
MIC E. Coli. (E. Coli; Example 107): >10 µM | MIC S. Aureus (S. Aureus; Example 107): 2.5-5^ uM

NC[C@@H]1O[C@H](O[C@H]2[C@@H](OCCOCCCC3CCCCC3)[C@H](O[C@@H]3[C@@H](O)[C@H](N)C[C@H](N)[C@H]3O[C@H]3O[C@H](CO)[C@@H](O)[C@H](O)[C@H]3N)O[C@@H]2CO)[C@H](N)[C@@H](O)[C@@H]1O [Compound 12b]
MIC (E. Coli; Example 107): 20 to 40 µM (≈ 15.7 to 31.4 µg/mL) | MIC (S. Aureus; Example 107): 5 to 10 µM (≈ 3.92 to 7.84 µg/mL)

NCCCCNCC1OC(OC2C(N)CC(N)C(O)C2OC2OC(CO)C(OC3OC(CN)C(O)C(O)C3N)C2O)C(N)C(O)C1O (stereo not shown) [Compound 15f]
Kd [1]: 6000 nM | Kd ([2]; Example 108): 6300 nM | MIC E. Coli. (E. Coli; Example 108): 2.5-5^ uM | MIC S. Aureus (S. Aureus; Example 108): 10 to 20 µM

NCC[C@H](O)C(=O)N[C@@H]1C[C@H](N)[C@@H](O[C@H]2O[C@H](CN)[C@@H](O)[C@H](O)[C@H]2O)[C@H](O)[C@H]1O[C@H]1O[C@H](CO)[C@@H](O)[C@H](N)[C@H]1O [Amikacin, reference compound]
# Dead mice/Total mice in group ([3]; 0.5 mg/kg subcutaneously): 8/10 | # Dead mice/Total mice in group ([3]; 1 mg/kg subcutaneously): 10/10 | # Dead mice/Total mice in group ([3]; 2 mg/kg subcutaneously): 8/10

NCC1OC(OC2C(CO)OC(OC3C(O)C(N)CC(N)C3OC3OC(CN4CCC5CCCCC54)C(O)C(O)C3N)C2O)C(N)C(O)C1O (stereo not shown) [Compound 15s]
MIC E. Coli. (E. Coli; Example 109): 1.3 to 2.5 µM | MIC S. Aureus (S. Aureus; Example 109): 0.3 to 0.6 µM

NCCNCCOC1C(OC2C(O)C(N)CC(N)C2OC2OC(CO)C(O)C(O)C2N)OC(CO)C1OC1OC(CN)C(O)C(O)C1N (stereo not shown) [Compound 9d]
Kd [2, 5]: 700 nM | MIC E. Coli. (E. Coli; Example 105): 6 to 12 µM | IC50 ([4]; Example 105): 300 nM | MIC S. Aureus (S. Aureus; Example 105): 2 to 3 µM

NCC1OC(OC2C(CO)OC(OC3C(O)C(N)CC(N)C3OC3OC(CNCCc4ccc(C(F)(F)F)cc4)C(O)C(O)C3N)C2O)C(N)C(O)C1O (stereo not shown) [Compound 15q]
MIC E. Coli. (E. Coli; Example 109): 1.3 to 2.5 µM | MIC S. Aureus (S. Aureus; Example 109): 0.3 to 0.6 µM

NCC1OC(OC2C(CO)OC(OC3C(O)C(N)CC(N)C3OC3OC(CO)C(O)C(O)C3N)C2OCCNC2CCCc3ccccc32)C(N)C(O)C1O (stereo not shown) [Compound 9ac]
MIC E. Coli. (E. Coli; Example 107): >10 µM | MIC S. Aureus (S. Aureus; Example 107): 1.3 to 2.5 µM

NCCCNCCOC1C(OC2C(O)C(N)CC(N)C2OC2OC(CO)C(O)C(O)C2N)OC(CO)C1OC1OC(CN)C(O)C(O)C1N (stereo not shown) [Compound 9c]
Kd [2, 6]: 400 nM | MIC E. Coli. (E. Coli; Example 105): 25 to 50 µM | IC50 ([4]; Example 105): 300 nM | MIC S. Aureus (S. Aureus; Example 105): 3 to 6 µM

NCC1OC(OC2C(CO)OC(OC3C(O)C(N)CC(N)C3OC3OC(CNCCc4ccc(C5CCCCC5)cc4)C(O)C(O)C3N)C2O)C(N)C(O)C1O (stereo not shown) [Compound 15m]
MIC E. Coli. (E. Coli; Example 109): 1.3 to 2.5 µM | MIC S. Aureus (S. Aureus; Example 109): 0.3 to 0.6 µM

COc1ccccc1CCNCC1OC(OC2C(N)CC(N)C(O)C2OC2OC(CO)C(OC3OC(CN)C(O)C(O)C3N)C2O)C(N)C(O)C1O (stereo not shown) [Compound 15n]
MIC S. Aureus (S. Aureus; Example 109): 0.2 to 0.3 µM and 0.3 to 0.6 µM

NC1CC(N)C(OC2OC(CO)C(O)C(O)C2N)C(OC2OC(CO)C(O)C2OCCNCCc2ccccc2)C1O (stereo not shown) [Compound 30c]
MIC E. Coli. (E. Coli; Example 107): >100 µM | MIC S. Aureus (S. Aureus; Example 107): 12 to 25 µM

NCCN(CCN)CCOC1C(OC2C(O)C(N)CC(N)C2OC2OC(CO)C(O)C(O)C2N)OC(CO)C1OC1OC(CN)C(O)C(O)C1N (stereo not shown) [Compound 9h]
Kd [2, 5]: 9200 nM | MIC E. Coli. (E. Coli; Example 105): >50 µM | IC50 ([4]; Example 105): 1000 nM | MIC S. Aureus (S. Aureus; Example 105): 25 to 50 µM

CN(CCc1ccccc1)CC1OC(OC2C(N)CC(N)C(O)C2OC2OC(CO)C(OC3OC(CN)C(O)C(O)C3N)C2O)C(N)C(O)C1O (stereo not shown) [Compound 15k]
MIC E. Coli. (E. Coli; Example 109): 2.5-5^ uM | MIC S. Aureus (S. Aureus; Example 109): 0.3 to 0.6 µM

NCC1OC(OC2C(CF)OC(OC3C(O)C(N)CC(N)C3OC3OC(CO)C(O)C(O)C3N)C2O)C(N)C(O)C1O (stereo not shown) [Compound 61, 5″-deoxy-5″-fluoro paromomycin]
Kd [2, 5]: 1100 nM | MIC (E. Coli; Example 105): > 50 µM | IC50 ([4]; Example 105): 300 nM | MIC (S. Aureus; Example 105): 12 to 25 µM (≈ 7.41 to 15.4 µg/mL)

neomycin [reference compound]
# Dead mice/Total mice in group ([3]; 0.5 mg/kg subcutaneously): 7/10 | # Dead mice/Total mice in group ([3]; 1 mg/kg subcutaneously): 10/10 | # Dead mice/Total mice in group ([3]; 2 mg/kg subcutaneously): 4/10

NCCOC1C(OC2C(O)C(N)CC(N)C2OC2OC(CO)C(O)C(O)C2N)OC(CO)C1OC1OC(CN)C(O)C(O)C1N (stereo not shown) [Compound 9f]
Kd [2, 5]: 300 nM | MIC E. Coli. (E. Coli; Example 105): 12 to 25 µM | IC50 ([4]; Example 105): 400 nM | MIC S. Aureus (S. Aureus; Example 105): 2 to 3 µM

CN(C)CCOC1C(OC2C(O)C(N)CC(N)C2OC2OC(CO)C(O)C(O)C2N)OC(CO)C1OC1OC(CN)C(O)C(O)C1N (stereo not shown) [Compound 9g]
Kd [2, 6]: 900 nM | MIC E. Coli. (E. Coli; Example 105): 12 to 52 µM | IC50 ([4]; Example 105): 200 nM | MIC S. Aureus (S. Aureus; Example 105): 6 to 12 µM

NC[C@@H]1O[C@H](O[C@H]2[C@@H](OCCCc3ccccc3)[C@H](O[C@@H]3[C@@H](O)[C@H](N)C[C@H](N)[C@H]3O[C@H]3O[C@H](CO)[C@@H](O)[C@H](O)[C@H]3N)O[C@@H]2CO)[C@H](N)[C@@H](O)[C@@H]1O [Compound 14b]
MIC (E. Coli; Example 107): 20 to 40 µM (≈ 14.7 to 29.4 µg/mL) | MIC (S. Aureus; Example 107): 3 to 5 µM (≈ 2.2 to 3.67 µg/mL)

NCC1OC(OC2C(CO)OC(OC3C(O)C(N)CC(N)C3OC3OC(CO)C(O)C(O)C3N)C2OCCNc2ccccc2)C(N)C(O)C1O (stereo not shown) [Compound 9l]
MIC E. Coli. (E. Coli; Example 105): 50 to 100 µM | IC50 ([4]; Example 105): 100 nM | MIC S. Aureus (S. Aureus; Example 105): 6 to 12 µM

COc1ccc(CCNCC2OC(OC3C(N)CC(N)C(O)C3OC3OC(CO)C(OC4OC(CN)C(O)C(O)C4N)C3O)C(N)C(O)C2O)cc1 (stereo not shown) [Compound 15r]
MIC E. Coli. (E. Coli; Example 109): 1.3 to 2.5 µM | MIC S. Aureus (S. Aureus; Example 109): 0.3 to 0.6 µM

COc1cc(CCNCCOC2C(OC3C(O)C(N)CC(N)C3OC3OC(CO)C(O)C(O)C3N)OC(CO)C2OC2OC(CN)C(O)C(O)C2N)cc(OC)c1 (stereo not shown) [Compound 9y]
MIC E. Coli. (E. Coli; Example 106): 10 to 20 µM | IC50 ([4]; Example 106): 200 nM | MIC S. Aureus (S. Aureus; Example 106): 5 to 10 µM

NCC1OC(OC2C(CO)OC(OC3C(O)C(N)CC(N)C3OC3OC(CO)C(O)C(O)C3N)C2OCCNCCc2ccc(C(F)(F)F)cc2)C(N)C(O)C1O (stereo not shown) [Compound 9ah]
MIC E. Coli. (E. Coli; Example 107): 5 to 10 µM | MIC S. Aureus (S. Aureus; Example 107): 0.6 to 1.2 µM

NCC1OC(OC2C(CO)OC(OC3C(O)C(N)CC(N)C3OC3OC(CO)C(O)C(O)C3N)C2OCCNCCC2CC3CCC2C3)C(N)C(O)C1O (stereo not shown) [Compound 9ab]
MIC E. Coli. (E. Coli; Example 107): >10 µM | MIC S. Aureus (S. Aureus; Example 107): 5 to 10 µM

Cc1ccc(CCNCC2OC(OC3C(N)CC(N)C(O)C3OC3OC(CO)C(OC4OC(CN)C(O)C(O)C4N)C3O)C(N)C(O)C2O)cc1 (stereo not shown) [Compound 15g]
MIC E. Coli. (E. Coli; Example 109): 2.5-5^ uM | MIC S. Aureus (S. Aureus; Example 109): 0.6 to 1.2 µM
